This note sets out measurements from patent US9839638B2, “Compositions and methods for protecting cells during cancer chemotherapy and radiotherapy” (Wisconsin Alumni Research Foundation, priority 2000, dated 2017).

Data set [1] has as its system CTX induced alopecia in 7 day old rat pups. Put plainly: Prevention of cytoxan (CTX)-induced alopecia by topical chemoprotective inducers in rat pups. Type of data set: in vivo, Sprague Dawley rats. To be noted: for protective effect against CTX-induced hair loss (hair density): topical in nonionic liposomes day -2 to day 6, CTX i.p. day 0, scored day 7, 100% = untreated control pups; for alopecia when delivered in minoxidil vehicle (propylene glycol:ethanol:water): minoxidil carrier, compared with CTX-treated pups without inducer.

The test system of data set [2] is chemoprotective/stress-related genes (GST-PI, GST-Mu2, GST-Ya, GST) in rat pup skin. Description: Rat stress gene cDNA expression array on skin samples of treated rat pups. To be noted: topical 15 mM for 5 days; compared to rat pups treated with cytoxan. Type of data set: in vivo. As to the method: In brief, rat pups were treated with either CTX or B-NF and at different time intervals skin samples were collected and total RNA was extracted from them. The RNA was reverse transcribed to form the respective cDNAs in the presence of ^32P dATP using primers specific for stress-related genes. The radiolabeled cDNA synthesized was used to probe a rat stress gene cDNA expression array consisting of 207 stress-related genes (Clontech) according to the manufacturer's protocol. The hybridized membrane was exposed to a phosphorimager screen and the image obtained was aligned with an orientation grid to identify the genes that are expressed. Images from control, CTX, treated and B-NF-treated animals were compared to determine the changes, if any, in the expression pattern of chemoprotective genes under these experimental conditions.

Data set [3] relates to 7 day old rat pups (hair loss). To be noted: 40 μg/gm CTX i.p., 7 day old pups, examined seven days after.
Experimental: Lactating Sprague Dawley rats with 12 pups per mother were purchased from Harlan Sprague Dawley. To produce CTX induced alopecia, several concentrations (35, 40 45 μg/gm body weight) of CTX in water were injected i.p. in to 7 day old pups. Seven days after CTX treatment the pups were examined to determine the degree of hair loss. The pups were gently brushed on the back to remove the loose hair sticking onto the skin and photographed. The density of hair on the pups was then determined.

For the compound `Cc1c(-c2cnccn2)ssc1=S` [Oltipraz], in data set [1], the “protective effect against CTX-induced hair loss (hair density)” value is 50%.

`O=c1cc(-c2ccccc2)oc2ccc3ccccc3c12` [B-NF, β-naphthoflavone]: in data set [1] (applied only on the day before cytoxan), the “protective effect when applied only on the day before cytoxan” value was “substantial protective effect”. Moreover, in data set [1], the “alopecia when delivered in minoxidil vehicle (propylene glycol:ethanol:water)” value is reported as “as severe as the untreated CTX-treated rat pups” and the “protective effect against CTX-induced hair loss (hair density)” value was 80%. Further, in data set [1] (listed as BNF), the “alopecia when delivered in minoxidil vehicle (propylene glycol:ethanol:water)” value is “hair loss equivalent to that observed in cytoxan-treated animals not pre-treated”. The “expression level of GST-PI, GST-Mu2, GST-Ya and GST (rat homolog of human) in skin” value in data set [2] was “significant increase”. For the compound `C[S+]([O-])CCCCN=C=S` (stereo not shown) [sulphoraphane], the “protective effect against CTX-induced hair loss (hair density)” value in data set [1] was found to be 5%. Consider `COc1ccc(O)c(C(C)(C)C)c1` [BHA], for which the “protective effect against CTX-induced hair loss (hair density)” value in data set [1] is 60%. Consider `CC(C)(C)c1cc(O)ccc1O` [tBHQ, tert-butylhydroquinone], for which the “protective effect against CTX-induced hair loss (hair density)” value in data set [1] was 10%.

With `O=P1(N(CCCl)CCCl)NCCCO1` (stereo not shown) [CTX], in data set [3], the hair loss induced is 100%.
